Reference: patent US20150297579A1, “TREATMENT OF CANCER WITH POMALIDOMIDE IN A RENALLY IMPAIRED SUBJECT” (priority 2012, published 2015)

System: patients with relapsed/refractory multiple myeloma (RRMM)
Assay: POM+LoDEX vs. HiDEX in RRMM: analysis of patients with moderate renal impairment
Assay type: in vivo, human
Method: Randomization was 2:1 to POM 4 mg (Day 1 to Day 21)+DEX 40 mg (20 mg for patients aged >75 y) qw; or DEX 40 mg (20 mg for patients aged >75 y) (Day 1-Day 4, Day 9-Day 12, and Day 17-Day 20) in a 28-D cycle. Treatment continued until PD or unacceptable adverse event (AE). The primary endpoint was progression-free survival (PFS). Secondary endpoints included overall survival (OS) and AEs. This analysis examined patients with or without moderate RI (CrCl<60 vs.≧60 mL/min).

SMILES: C[C@@H]1C[C@H]2[C@@H]3CCC4=CC(=O)C=C[C@]4(C)[C@@]3(F)[C@@H](O)C[C@]2(C)[C@@]1(O)C(=O)CO [HiDEX, (8S,9R,10S,11S,13S,14S,16R,17R)-9-fluoro-11,17-dihydroxy-17-(2-hydroxyacetyl)-10,13,16-trimethyl-6,7,8,9,10,11,12,13,14,15,16,17-dodecahydro-3H-cyclopenta[a]phenanthren-3-one]
- Median OS (mo) (CrCl <60 mL/min (moderate RI)): 4.6 mo
- Median PFS (mo) (CrCl <60 mL/min (moderate RI)): 1.6 mo
- Median OS (mo) (CrCl ≧60 mL/min): 9.2 mo
- Median PFS (mo) (CrCl ≧60 mL/min): 1.8 mo
- Discontinuation due to AE (moderate RI): 5%
- Gr 3/4 AE: anemia (moderate RI): 34%
- Gr 3/4 AE: infection (moderate RI): 24%
- Gr 3/4 AE: neutropenia (moderate RI): 15%
- Discontinuation due to AE (no moderate RI): 7%
- Gr 3/4 AE: anemia (normal renal function): 26%
- Gr 3/4 AE: infection (normal renal function): 23%
- Gr 3/4 AE: neutropenia (normal renal function): 15%
